Assay results from patent publication US20260345595A1, “NOVEL FLUORENE DERIVATIVE COMPOUND AND USE THEREOF” (JD BIOSCIENCE INC., priority 2022, published 2026).

What was measured:
[1] = system: acute kidney ischemic reperfusion (IR) injury in C57BL6J mice; experiment: Acute kidney ischemic reperfusion (IR) injury animal model; type: in vivo, mouse; details: 4 μg/kg and 8 μg/kg, tail vein
Experimental: Vehicle and Compound 1 (4 μg/kg or 8 μg/kg) were administered to 8-week-old male C57BL6J mice via the tail vein 24 hours before, 1 hour before, and 12 hours after ischemic reperfusion (IR) surgery. The surgery was performed by blocking the artery leading to the kidney to induce ischemia for 37 minutes. The blocked artery was released, and 24 hours later, the mice were anesthetized and autopsied. Other part was used to synthesize cDNA, and a kidney damage marker, NGAL was identified by real-time PCR. And serum was separated from the blood, and creatinine, which is a kidney damage marker in the serum, was examined, and the results are shown in FIG. 3.

[2] = system: HCT-116 colorectal cancer; experiment: HCT-116 colorectal cancer tumor model; type: in vivo, nude mice; details: 0.5 and 1.0 mg/kg
Experimental: A colorectal cancer model was established by subcutaneously transplanting HCT-116 colorectal cancer cell line into nude mice. The colorectal cancer model was divided into the following three groups: Group 1 was administered a vehicle as a control group, Group 2 was administered 0.5 mg/kg of Compound 1, and Group 3 was administered 1.0 mg/kg of Compound 1. The drug was orally administered once a day for a total of 21 times. To evaluate the therapeutic efficacy, the tumor size was measured before drug administration and on days 3, 7, 10, 14, 17, 21, and 24 after drug administration. The tumor size was calculated as follows:
Tumor size (mm^3)=(A×B^2)/2 • wherein A and B represent the tumor long axis and short axis, respectively.
In addition, the body weight was measured before drug administration and on days 7, 14, and 21 after drug administration.

[3] = system: GvHD in vivo model in BALB/c mice; experiment: Graft-versus-host disease (GvHD) animal model; design: species or system mouse; details: for production of CD4+IFNg+T cells, mean value: spleen, day 14
Experimental: 5-week-old BALB/c male mice were acclimatized for 1 week and irradiated with 800 cGy of total body irradiation. Then, 5×10^6 bone marrow cells derived from C57BL/6J and 1×10^7 spleen cells were intravenously injected to establish a GvHD in vivo model (positive control). A syngeneic control group was established in the same manner as above, but BALB/c-derived bone marrow cells were selected as the injected bone marrow cells. Compound 1 Daily was established by daily oral gavage of 1 mg/kg of Compound 1 to the GvHD in vivo model. Compound 1 Initial only was established by orally administering 1 mg/kg of Compound 1 to the GvHD in vivo model only for 6 days after model induction. The therapeutic effect of Compound 1 was verified by measuring the change in body weight every 3 days for each control and experimental group established as above, and the results are shown in FIG. 11 and Table 4. On day 14, the production of CD4^+IFNg^+T cells, which is a major factor inducing GvHD, was measured in the spleens isolated from the mice, and the results are shown in FIG. 12 and Table 5.

NCI-H295R cells = experiment: Cortisol production, Cushing's syndrome cell model, ELISA; type: cell-based, human; details: 0.1, 0.5 and 1 μM; 8-Br-cAMP 0.5 mM; FIG. 14
Experimental: NCI-H295R cells (ATCC #CRL-2128), which are a human adrenocortical carcinoma cell line, were seeded at a density of 2.5×10^5 cells/well in a 24-well plate. The cells were cultured for 48 hours, and then they were pretreated with Compound 1 (0.1 μM, 0.5 μM, and 1 μM) for 12 hours. Furthermore, to increase cortisol synthesis, the cells were treated with 8-bromoadenosine […] (8-Br-CAMP) at a concentration of 0.5 mM, and then re-treated with Compound 1, and allowed to react for 24 hours. After the reaction, the cell culture medium was collected, and the amount of cortisol produced in the cells was measured using an ELISA kit, and the results are shown in FIG. 14.

[4] = system: LPS-induced sepsis in C57BL6J mice; experiment: LPS-induced sepsis animal model, viability; type: in vivo, mouse; details: for Viability: 15 mg/kg i.p. before 50 mg/kg LPS
Experimental: 50 mg/kg of lipopolysaccharide (LPS) administration dose corresponds to the ‘half lethal dose’ that causes death of one half of the population within 24 hours. […] The animal experiment was conducted with six 8-week-old male C57BL6J mice per group. Each mouse was intraperitoneally administered 15 mg/kg of Compound 1 or pretreated with 100 μL of 10% DMSO (vehicle control). 30 minutes later, 50 mg/kg lipopolysaccharide was intraperitoneally injected into each mouse, and the viability was examined for 80 hours, and the results are shown in FIG. 9 and Table 2.

[5] = versus vehicle-treated IR, FIG. 2

CC(C(=O)NNc1ccc(F)cc1)n1cc(-c2cc(F)cc3c2-c2ccccc2C3(O)C(F)(F)F)cn1 (stereo not shown) [Compound 1, 2-(4-(2-fluoro-9-hydroxy-9-(trifluoromethyl)-9H-fluoren-4-yl)-1H-pyrazol-1-yl)-N′-(4-fluorophenyl)propanehydrazide]
NGAL RNA expression ([1]; kidney, real-time PCR, p<0.01 versus IR+Vehicle, FIG. 3): significantly reduced
serum creatinine ([1]; p<0.01 versus IR+Vehicle, FIG. 3): significantly reduced
apoptosis (TUNEL staining) of kidney tissue [1, 5]: significant reduction in the apoptosis
renal tubular tissue damage (H&E staining) [1, 5]: significant reduction in the renal tubular tissue damage
body weight change ([2]; oral once a day, 21 times): no significant body weight change
tumor growth (in words) ([2]; oral, p<0.05 versus vehicle, FIG. 21): statistically significant concentration-dependent tumor growth inhibitory effect
body weight recovery (in words) ([3]; Daily and Initial only, 1 mg/kg oral, versus control, FIG. 11): significantly recovered
production of allogeneic CD4+IFNg+T cells (in words) ([3]; Daily and Initial only, 1 mg/kg oral, versus control, FIG. 12): significantly reduced
production of CD4+IFNg+T cells, mean value ([3]; Daily, 1 mg/kg oral gavage): 10.28
production of CD4+IFNg+T cells, mean value ([3]; Initial only (6 days), 1 mg/kg oral): 13.04
cortisol production (NCI-H295R cells): significantly inhibited by the administration of Compound 1, and this inhibition showed a concentration-dependent tendency
Viability ([4]; 0 h): 100%
Viability ([4]; 20 h): 100%
Viability ([4]; 24 h): 83.3%
Viability ([4]; 28 h): 83.3%
Viability ([4]; 32 h): 83.3%
Viability ([4]; 36 h): 66.7%
Viability ([4]; 40 h): 66.7%
Viability ([4]; 44 h): 66.7%
Viability ([4]; 48 h): 66.7%
Viability ([4]; 50 h): 66.7%
Viability ([4]; 60 h): 50%
Viability ([4]; 70 h): 50%
Viability ([4]; 80 h): 50%
viability in sepsis-induced animal model (in words) ([4]; 15 mg/kg i.p., p<0.01 versus LPS+vehicle, FIG. 9): had the effect of improving the viability
